# Reference: article PMC9518264, “Design and synthesis of novel quinazolinone-based derivatives as EGFR inhibitors with antitumor activity” (Journal of Enzyme Inhibition and Medicinal Chemistry, 2022)
# Legend:
# [1] = tested on: UACC-257; experiment: cells; assay type: cell-based; details: Homo sapiens; UACC-257; 10 μM; read-out: growth inhibition % (GI%)
# [2] = tested on: SW-620; experiment: cells; assay type: cell-based; details: Homo sapiens; SW-620; 10 μM; read-out: growth inhibition % (GI%)
# [3] = tested on: SF-268; experiment: cells; assay type: cell-based; details: Homo sapiens; SF-268; 10 μM; read-out: growth inhibition % (GI%)
# [4] = tested on: SN12C; experiment: cells; assay type: cell-based; details: Homo sapiens, 10 μM, read-out: growth inhibition % (GI%)
# [5] = tested on: HT29; experiment: cells; assay type: cell-based; details: Homo sapiens, HT-29; HT29; 10 μM; read-out: growth inhibition % (GI%)
# [6] = tested on: NCI-H322M; experiment: cells; assay type: cell-based; details: Homo sapiens, 10 μM, read-out: growth inhibition % (GI%)
# [7] = tested on: TK-10; experiment: cells; assay type: cell-based; details: Homo sapiens; TK-10; 10 μM; read-out: growth inhibition % (GI%)
# [8] = tested on: NCI-H226; experiment: cells; assay type: cell-based; details: Homo sapiens; NCI-H226; 10 μM; read-out: growth inhibition % (GI%)
# [9] = tested on: RPMI-8226; experiment: cells; assay type: cell-based; details: Homo sapiens; RPMI-8226; 10 μM; read-out: growth inhibition % (GI%)
# [10] = tested on: OVCAR-8; experiment: cells; assay type: cell-based; details: Homo sapiens; OVCAR-8; 10 μM; read-out: growth inhibition % (GI%)
# [11] = tested on: T-47D; experiment: cells; assay type: cell-based; details: Homo sapiens, T47D; T-47D; 10 μM; read-out: growth inhibition % (GI%)
# [12] = tested on: SF-539; experiment: cells; assay type: cell-based; details: Homo sapiens; SF-539; 10 μM; read-out: growth inhibition % (GI%)
# [13] = tested on: UO-31; experiment: cells; assay type: cell-based; details: Homo sapiens; UO-31; 10 μM; read-out: growth inhibition % (GI%)
# [14] = tested on: LOX IMIV; experiment: cells; assay type: cell-based; details: Homo sapiens, 60 cell; LOX IMIV; 10 μM; read-out: growth inhibition % (GI%)
# [15] = tested on: SK-MEL-28; experiment: cells; assay type: cell-based; details: Homo sapiens; SK-MEL-28; 10 μM; read-out: growth inhibition % (GI%)
# [16] = tested on: HCT-116; experiment: cells; assay type: cell-based; details: Homo sapiens; HCT-116; 10 μM; read-out: growth inhibition % (GI%)
# [17] = tested on: OVCAR-3; experiment: NCI 60 cell line antiproliferative screening (SRB), Ovarian cancer; details: Homo sapiens, OVCAR-3, read-out: growth inhibition % (GI%)
# [18] = tested on: EKVX; experiment: cells; assay type: cell-based; details: Homo sapiens, 10 μM, read-out: growth inhibition % (GI%)
# [19] = tested on: NCI/ADR-RES; experiment: cells; assay type: cell-based; details: Homo sapiens, 10 μM, read-out: growth inhibition % (GI%)
# [20] = tested on: panel of 60 tumour cell lines; experiment: NCI 60 cell line antiproliferative screening (SRB), whole panel or subpanels (means, ranges, words); assay type: cell-based, human; details: Homo sapiens, 60 cell, mean over the cell line panel; 10 μM; read-out: Mean growth inhibition % (mean GI%)
# [21] = tested on: IGROV1; experiment: cells; assay type: cell-based; details: Homo sapiens, IGROV-1; IGROV1; 10 μM; read-out: growth inhibition % (GI%)
# [22] = tested on: ACHN; experiment: cells; assay type: cell-based; details: Homo sapiens, 10 μM, read-out: growth inhibition % (GI%)
# [23] = tested on: CCRF-CEM; experiment: cells; assay type: cell-based; details: Homo sapiens, 10 μM, read-out: growth inhibition % (GI%)
# [24] = tested on: HOP-62; experiment: cells; assay type: cell-based; details: Homo sapiens; HOP-62; 10 μM; read-out: growth inhibition % (GI%)
# [25] = tested on: SK-MEL-5; experiment: cells; assay type: cell-based; details: Homo sapiens; SK-MEL-5; 10 μM; read-out: growth inhibition % (GI%)
# [26] = tested on: SK-OV-3; experiment: cells; assay type: cell-based; details: Homo sapiens; SK-OV-3; 10 μM; read-out: growth inhibition % (GI%)
# [27] = tested on: COLO-205; experiment: cells; assay type: cell-based; details: Homo sapiens; COLO-205; 10 μM; read-out: growth inhibition % (GI%)
# [28] = tested on: MDA-MB-435; experiment: cells; assay type: cell-based; details: Homo sapiens; MDA-MB-435; 10 μM; read-out: growth inhibition % (GI%)
# [29] = tested on: NCI-H460; experiment: cells; assay type: cell-based; details: Homo sapiens; NCI-H460; 10 μM; read-out: growth inhibition % (GI%)
# [30] = tested on: SNB-19; experiment: cells; assay type: cell-based; details: Homo sapiens; SNB-19; 10 μM; read-out: growth inhibition % (GI%)
# [31] = tested on: OVCAR-5; experiment: cells; assay type: cell-based; details: Homo sapiens; OVCAR-5; 10 μM; read-out: growth inhibition % (GI%)
# [32] = tested on: OVCAR-4; experiment: cells; assay type: cell-based; details: Homo sapiens; OVCAR-4; 10 μM; read-out: growth inhibition % (GI%)
# [33] = tested on: SK-MEL-2; experiment: cells; assay type: cell-based; details: Homo sapiens; SK-MEL-2; 10 μM; read-out: growth inhibition % (GI%)
# [34] = tested on: SNB-75; experiment: cells; assay type: cell-based; details: Homo sapiens; SNB-75; 10 μM; read-out: growth inhibition % (GI%)
# [35] = tested on: A498; experiment: cells; assay type: cell-based; details: Homo sapiens; A498; 10 μM; read-out: growth inhibition % (GI%)
# [36] = tested on: MDA-MB-231/ATCC; experiment: NCI 60 cell line antiproliferative screening (SRB), Breast cancer; assay type: cell-based; details: Homo sapiens, MDA-MB-231, read-out: growth inhibition % (GI%)
# [37] = tested on: SR; experiment: cells; assay type: cell-based; details: Homo sapiens, 10 μM, read-out: growth inhibition % (GI%)
# [38] = tested on: 786-0; experiment: cells; assay type: cell-based; details: Homo sapiens; 786-0; 10 μM; read-out: growth inhibition % (GI%)
# [39] = tested on: BT-549; experiment: cells; assay type: cell-based; details: Homo sapiens; BT-549; 10 μM; read-out: growth inhibition % (GI%)
# [40] = tested on: MDA-MB-468; experiment: NCI 60 cell line antiproliferative screening (SRB), Breast cancer; details: Homo sapiens, MDA-MB-468, read-out: growth inhibition % (GI%)
# [41] = tested on: PC-3; experiment: cells; assay type: cell-based; details: Homo sapiens; PC-3; 10 μM; read-out: growth inhibition % (GI%)
# [42] = tested on: HCC-2998; experiment: cells; assay type: cell-based; details: Homo sapiens; HCC-2998; 10 μM; read-out: growth inhibition % (GI%)
# [43] = tested on: K-562; experiment: cells; assay type: cell-based; details: Homo sapiens, K562; K-562; 10 μM; read-out: growth inhibition % (GI%)
# [44] = tested on: NCI-H522; experiment: cells; assay type: cell-based; details: Homo sapiens; NCI-H522; 10 μM; read-out: growth inhibition % (GI%)
# [45] = tested on: HOP-92; experiment: cells; assay type: cell-based; details: Homo sapiens; HOP-92; 10 μM; read-out: growth inhibition % (GI%)
# [46] = tested on: UACC-62; experiment: cells; assay type: cell-based; details: Homo sapiens; UACC-62; 10 μM; read-out: growth inhibition % (GI%)
compound,measurement,setting,value
"O=C(CSc1nc2ccccc2c(=O)n1-c1ccccc1)NN=Cc1ccc(N2CCCCC2)cc1 [6g, 2-((4-oxo-3-phenyl-3,4-dihydroquinazolin-2-yl)thio)-N'-(4-(piperidin-1-yl)benzylidene) acetohydrazide]",inhibition at 10 µM,[1],< 15%
same,inhibition at 10 µM,[2],< 15%
same,inhibition at 10 µM,[3],< 15%
same,inhibition at 10 µM,[4],< 15%
same,inhibition at 10 µM,[5],< 15%
same,inhibition at 10 µM,[6],< 15%
same,inhibition at 10 µM,[7],< 15%
same,inhibition at 10 µM,[8],< 15%
same,inhibition at 10 µM,[9],17.6%
same,inhibition at 10 µM,[10],< 15%
same,inhibition at 10 µM,[11],< 15%
same,inhibition at 10 µM,[12],< 15%
same,inhibition at 10 µM,[13],23.3%
same,inhibition at 10 µM,[14],< 15%
same,inhibition at 10 µM,[15],< 15%
same,inhibition at 10 µM,[16],15.5%
same,inhibition at 10 µM,[17],< 15%
same,inhibition at 10 µM,[18],20.4%
same,inhibition at 10 µM,[19],< 15%
same,inhibition at 10 µM,[20],4.28%
same,inhibition at 10 µM,[21],< 15%
same,inhibition at 10 µM,[22],< 15%
same,inhibition at 10 µM,[23],< 15%
same,inhibition at 10 µM,[24],< 15%
same,inhibition at 10 µM,[25],< 15%
same,inhibition at 10 µM,[26],< 15%
same,inhibition at 10 µM,[27],< 15%
same,inhibition at 10 µM,[28],< 15%
same,inhibition at 10 µM,[29],< 15%
same,inhibition at 10 µM,[30],< 15%
same,inhibition at 10 µM,[31],< 15%
same,inhibition at 10 µM,[32],< 15%
same,inhibition at 10 µM,[33],< 15%
same,inhibition at 10 µM,[34],19.9%
same,inhibition at 10 µM,[35],< 15%
same,inhibition at 10 µM,[36],< 15%
same,inhibition at 10 µM,[37],24.7%
same,inhibition at 10 µM,[38],< 15%
same,inhibition at 10 µM,[39],< 15%
same,inhibition at 10 µM,[40],< 15%
same,inhibition at 10 µM,[41],18.5%
same,inhibition at 10 µM,[42],< 15%
same,inhibition at 10 µM,[43],26.8%
same,inhibition at 10 µM,[44],15.3%
same,inhibition at 10 µM,[45],19.5%
same,inhibition at 10 µM,[46],< 15%
